Data from paper PMC9316317, “Reducing the Kidney Uptake of High Contrast CXCR4 PET Imaging Agents via Linker Modifications” (Pharmaceutics, 2022).
Where a SMILES comes first, the peptide text is derived from it. Side-chain parts run from the residue outwards. [ ]: non-standard residue; d: D form. The star is where a group is joined. DOTA = O=C(O)CN1CCN(CC(=O)O)CCN(CC(=O)*)CCN(CC(=O)O)CC1; 2Nal = N[C@@H](Cc1ccc2ccccc2c1)C(=O)O; dNMeOrn = CN[C@H](CCCN)C(=O)O; 4Amb = NCc1ccc(C(=O)O)cc1

Key:
[1] = Ex vivo biodistribution in Daudi xenograft-bearing mice; settings: male, NOD.Cg-Rag1tm1Mom Il2rgtm1Wjl/SzJ (NRG), mouse, iv, total radioactivity; for tissue uptake at 2 h: 2 h p.i.
Procedure: (§1) Male NOD.Cg-Rag1tm1Mom Il2rgtm1Wjl/SzJ (NRG) mice were obtained from an in-house breeding colony at the Animal Resource Centre of the BC Cancer Research Centre, Vancouver, Canada. Mice (6–10 weeks old, 25–30 g weight) were subcutaneously inoculated with 5 × 10^6 Daudi cells (100 μL; 1:1 ratio of PBS/Matrigel) on the left flank.
(§2) Additional groups of mice received 7.5 µg (0.25–0.3 mg/kg) LY2510924 as a blocking control i.p. 15 min before radiotracer injection, and euthanized 1 h p.i. Tissues were harvested, washed in PBS, blotted dry, and weighed, and radioactivity was counted on a Hidex AMG Automatic Gamma Counter. The counts were decay corrected, converted to absolute units using a calibration curve, and expressed as percent injected dose per gram of tissue (%ID/g).

[2] = test system: CXCR4-expressing Daudi xenograft mice; test: as above
Procedure: as §1, §2

[3] = 1 h p.i. blocked with LY2510924, mean

tissue uptake at 1 h ([1]; adrenals, Adrenals uptake, 1 h p.i. blocked with LY2510924, mean): 0.38 %ID/g | tissue uptake at 1 h ([1]; adrenals, Adrenals uptake, 1 h p.i., mean): 0.34 %ID/g | tissue uptake at 2 h ([1]; adrenals, Adrenals uptake, mean): 0.18 %ID/g | tissue uptake at 1 h ([1]; blood, Blood uptake, 1 h p.i. blocked (7.5 µg LY2510924 i.p. 15 min before tracer), mean): 1.23 %ID/g | tissue uptake at 2 h ([1]; blood, Blood uptake, mean): 0.28 ± 0.04 %ID/g | tissue uptake at 1 h ([1]; bone, Bone uptake, 1 h p.i. blocked with LY2510924, mean): 0.27 %ID/g | tissue uptake at 1 h ([1]; bone, Bone uptake, 1 h p.i., mean): 0.18 %ID/g | tissue uptake at 2 h ([1]; bone, Bone uptake, mean): 0.14 %ID/g | tissue uptake at 1 h ([1]; brain, Brain uptake, 1 h p.i. blocked with LY2510924, mean): 0.03 %ID/g | tissue uptake at 1 h ([1]; brain, Brain uptake, 1 h p.i., mean): 0.03 %ID/g | tissue uptake at 2 h ([1]; brain, Brain uptake, mean): 0.01 %ID/g | tissue uptake at 1 h ([1]; fat, Fat uptake, 1 h p.i. blocked with LY2510924, mean): 0.18 %ID/g | tissue uptake at 1 h ([1]; fat, Fat uptake, 1 h p.i., mean): 0.08 %ID/g | tissue uptake at 2 h ([1]; fat, Fat uptake, mean): 0.04 %ID/g | tissue uptake at 1 h ([1]; heart, Heart uptake, 1 h p.i. blocked with LY2510924, mean): 0.47 %ID/g | tissue uptake at 1 h ([1]; heart, Heart uptake, 1 h p.i., mean): 0.36 %ID/g | tissue uptake at 2 h ([1]; heart, Heart uptake, mean): 0.13 %ID/g | tissue uptake at 1 h ([1]; intestine, Intestine uptake, 1 h p.i. blocked with LY2510924, mean): 0.59 %ID/g | tissue uptake at 2 h ([1]; intestine, Intestine uptake, mean): 0.2 %ID/g | tissue uptake at 1 h ([1]; kidney, Kidney uptake, 1 h p.i. blocked with LY2510924, mean): 3.16 %ID/g | tissue uptake at 1 h ([1]; kidney, Kidney uptake, 1 h p.i., mean): 2.78 %ID/g | tissue uptake at 2 h ([1]; kidney, Kidney uptake, mean): 1.76 ± 0.38 %ID/g | tissue uptake at 1 h ([1]; liver, Liver uptake, 1 h p.i. blocked with LY2510924, mean): 1.25 %ID/g | tissue uptake at 1 h ([1]; liver, Liver uptake, 1 h p.i., mean): 1.23 ± 0.15 %ID/g | tissue uptake at 2 h ([1]; liver, Liver uptake, mean): 0.89 ± 0.12 %ID/g | tissue uptake at 1 h ([1]; lung, Lung uptake, 1 h p.i. blocked with LY2510924, mean): 1.39 %ID/g | tissue uptake at 1 h ([1]; lung, Lung uptake, 1 h p.i., mean): 1.16 ± 0.14 %ID/g | tissue uptake at 2 h ([1]; lung, Lung uptake, mean): 0.54 ± 0.08 %ID/g | tissue uptake at 1 h ([1]; muscle, Muscle uptake, 1 h p.i. blocked with LY2510924, mean): 0.26 %ID/g | tissue uptake at 1 h ([1]; muscle, Muscle uptake, 1 h p.i., mean): 0.2 %ID/g | tissue uptake at 2 h ([1]; muscle, Muscle uptake, mean): 0.06 ± 0.02 %ID/g | tissue uptake at 1 h ([1]; pancreas, Pancreas uptake, 1 h p.i. blocked with LY2510924, mean): 0.25 %ID/g | tissue uptake at 1 h ([1]; pancreas, Pancreas uptake, 1 h p.i., mean): 0.21 %ID/g | tissue uptake at 2 h ([1]; pancreas, Pancreas uptake, mean): 0.08 %ID/g | tissue uptake at 1 h ([1]; spleen, Spleen uptake, 1 h p.i. blocked with LY2510924, mean): 0.59 %ID/g | tissue uptake at 1 h ([1]; spleen, Spleen uptake, 1 h p.i., mean): 0.63 %ID/g | tissue uptake at 2 h ([1]; spleen, Spleen uptake, mean): 0.33 %ID/g | tissue uptake at 1 h ([1]; stomach, Stomach uptake, 1 h p.i. blocked with LY2510924, mean): 0.17 %ID/g | tissue uptake at 1 h ([1]; stomach, Stomach uptake, 1 h p.i., mean): 0.13 %ID/g | tissue uptake at 2 h ([1]; stomach, Stomach uptake, mean): 0.05 %ID/g | tissue uptake at 1 h ([1]; testes, Testes uptake, 1 h p.i. blocked with LY2510924, mean): 0.55 %ID/g | tissue uptake at 1 h ([1]; testes, Testes uptake, 1 h p.i., mean): 0.39 %ID/g | tissue uptake at 2 h ([1]; testes, Testes uptake, mean): 0.13 %ID/g | tissue uptake at 1 h ([1]; tumor (Daudi xenograft), Tumor uptake (Daudi xenograft), 1 h p.i. blocked with LY2510924, mean): 0.61 %ID/g | tissue uptake at 1 h ([1]; tumor (Daudi xenograft), Tumor uptake (Daudi xenograft), 1 h p.i., mean): 6.31 ± 1.02 %ID/g | tissue uptake at 2 h ([1]; tumor (Daudi xenograft), Tumor uptake (Daudi xenograft), mean): 5.23 %ID/g | Tumor:Blood ratio [2, 3]: 0.53 | Tumor:Bone ratio [2, 3]: 2.67 | Tumor:Liver ratio [2, 3]: 0.50 | Tumor:Lung ratio [2, 3]: 0.47 | Tumor:Muscle ratio [2, 3]: 2.55 | Tumor:Spleen ratio [2, 3]: 1.14 | Tumor:Blood ratio ([2]; 1 h p.i., mean): 6.53 | Tumor:Bone ratio ([2]; 1 h p.i., mean): 35.99 | Tumor:Kidney ratio ([2]; 1 h p.i., mean): 2.29 ± 0.38 | Tumor:Liver ratio ([2]; 1 h p.i., mean): 5.14 | Tumor:Lung ratio ([2]; 1 h p.i., mean): 5.48 | Tumor:Muscle ratio ([2]; 1 h p.i., mean): 33.25 | Tumor:Spleen ratio ([2]; 1 h p.i., mean): 10.20 | Tumor:Blood ratio ([2]; 2 h p.i., mean): 18.94 | Tumor:Bone ratio ([2]; 2 h p.i., mean): 43.48 | Tumor:Kidney ratio ([2]; 2 h p.i., mean): 3.07 ± 0.54 | Tumor:Liver ratio ([2]; 2 h p.i., mean): 5.93 | Tumor:Lung ratio ([2]; 2 h p.i., mean): 9.95 | Tumor:Muscle ratio ([2]; 2 h p.i., mean): 95.44 | Tumor:Spleen ratio ([2]; 2 h p.i., mean): 16.57
Structure (SMILES): CN1C(=O)[C@@H](Cc2ccc(O)cc2)NC(=O)CNC(=O)[C@H](Cc2ccc3ccccc3c2)NC(=O)[C@H](CCCNC(=N)N)NC(=O)[C@H]1CCCNC(=O)c1ccc(CNC(=O)CN2CCN(CC(=O)O)CCN(CC(=O)O)CCN(CC(=O)O)CC2)cc1 [[68Ga]Ga-Pentixafor, metal not drawn] (cyclo([dY][dNMeOrn]([4Amb-DOTA])R[2Nal]G))
